Experimental data taken from US7160992B2, “Amino-modified polysaccharides and methods of generating and using same” (Yeda Research and Development Co., Ltd., priority 2003, dated 2007).
“And” between values parts separate entries of the source, which are not always exact repeats. Equal entries are not always repeated. Where two headings read alike, the source gives them in different places.

Columns and labels:
[1] = test system: NeoR6 resistant HIV-1 isolates; test: Inhibition of NeoR6 resistant HIV-1 isolates in MT2 or cMAGI cells; assay type: cell-based
Description: (§1) The cMAGI assay is based on the ability of HIV-1 TAT to transactivate the expression of an integrated β-galactosidase reporter gene driven by the HIV-LTR [Chackerian, B. et al., 1997. J Virol. 71: 3932–3939; Collins, K. B. et al., 2000. Nat. Med. 6: 475–479]. The β-galactosidase reporter has been modified to remain localized in the nucleus where it can be detected with the X-gal substrate as an intense nuclear stain within a few days of infection. The X-gal substrate used was 5-bromo-4-chloro-3-indoyl-beta-D-galactopyranoside. HIV1IIIB was propagated by subculture in MT2 as described previously [Litovchick (2001) Supra]. Aliquots of cell-free culture supernatants were used as viral inoculum. […] The cytopathic effects of the viral infection of MT2 cells were analyzed by microscopic assessment of syncytium formation. These latter data were obtained by analysis of duplicate samples by two independent observers. HIV-1 infection of cMAGI cells was determined by counting the number of HIV-1 infected cells (stained blue).
Culture fluids were replaced […] weekly with fresh medium containing an appropriate drug concentration. […] From the final cycle of each experiment the resistant virus was propagated as described above.

CXCR4 = molecular target: T1, CXCR4 (Homo sapiens, UniProt P61073); test: Inhibition of anti-CXCR4 mAb 12G5 binding to cells, flow cytometry; assay type: cell-based
T1 construct: endogenous in cells; host or cells: PM1 cells and PBMC
T1 sequence (P61073 whole entry): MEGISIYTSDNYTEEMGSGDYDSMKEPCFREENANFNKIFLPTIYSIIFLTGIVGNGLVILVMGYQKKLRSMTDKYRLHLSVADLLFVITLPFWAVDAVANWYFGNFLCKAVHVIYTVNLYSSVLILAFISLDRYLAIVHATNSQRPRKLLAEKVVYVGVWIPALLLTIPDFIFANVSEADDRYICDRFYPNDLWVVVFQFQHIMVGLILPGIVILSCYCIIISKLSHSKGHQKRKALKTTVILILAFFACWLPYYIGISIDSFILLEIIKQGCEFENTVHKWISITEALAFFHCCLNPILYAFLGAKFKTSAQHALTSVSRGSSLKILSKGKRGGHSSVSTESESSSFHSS
Experimental: FIGS. 11a–d are graphs depicting the binding of AACs to CXCR4 in the presence of anti CXCR4 antibody (12G5). PM1 cells were incubated with PE-conjugated isotype control mAb, PE-anti CXCR4 conjugated mAb (12G5) alone, or in the presence of the indicated AACs for 30 min at 4° C. The cells were then washed twice with PBS and analyzed by flow cytometry. The MFI values are shown in parenthesis.
Interaction of AACs with CXCR4 was determined by flow cytometry (FACScan, Becton Dickinson) as described recently (Litovchick et al., 2001, supra). Briefly, 0.5×10^6 cells were washed in ice-cold PBS containing 0.1% sodium azide (wash buffer) and incubated at 4° C. with anti-CXCR4 mAb, 12G5 (PharMingen, San Diego, Calif.) conjugated to phycoerithrine (PE), in the absence or presence of different concentrations of the AACs. After 30 min of incubation, the cells were washed with ice-cold wash buffer and fixed in PBS containing 1% paraformaldehyde. Non-specific fluorescence was assessed by using isotype-matched control. For each sample 10,000 events were acquired. Data were analyzed and processed using CellQuest™ software (Becton Dickinson).

HIV-1 isolates [2] = conditions: Cabrera et al., 2002; cited from earlier work
HIV-1IIIB wild type = test: Inhibition of HIV-1IIIB wild type in MT2 or cMAGI cells; assay type: cell-based
Description: as §1

PM1 cells = test: Inhibition of FITC-labeled AAC uptake by SDF-1α, flow cytometry; assay type: cell-based; conditions: for MFI of FITC-AAC uptake: background MFI of 10
Experimental: Following 20 minutes at room temperature the cells were washed twice with PBS and analyzed by flow cytometry.
Following 30 minutes of incubation, cells were washed with ice-cold wash buffer and analyzed by flow cytometry as described above.

[3] = test system: U38, PM1, H9 cells and PBMC; test: Cellular uptake of AAC-FITC fluorescent probes, fluorescence microscopy; assay type: cell-based; conditions: 0.5 μM, 10 minutes of incubation
Experimental: Images were obtained using a Zeiss Axiophot microscope.
Cellular uptake using AAC fluorescent probes—U38, PM1, H9 cells and PBMC(10^5) were incubated for 20 minutes at room temperature in 100 μl RPMI 1640 medium (Gibco-BRL, Life-Technologies, UK) including AAC-FITC derivatives as indicated at a final concentration of 0.5 μM. Cells were washed twice, resuspended in 100 μl medium and analyzed with a Zeiss Axiophot fluorescent microscope.

MT-2 cells = test: Cellular uptake competition of AACs with NeoR6-FITC, flow cytometry; assay type: cell-based
Experimental: Following 15 minutes of incubation at room temperature, the cells were washed twice with ice-cold PBS and fixed in PBS containing 1% paraformaldehyde. Fluorescence was analyzed using flow cytometry.
After 5 or 15 min of incubation at room temperature, the cells were washed twice with ice-cold PBS and fixed in PBS containing 1% paraformaldehyde. The fluorescence was then analyzed by flow cytometry (FACScan, Becton Dickinson Imunocytometry Systems, San Jose, Calif., USA). For each sample 10,000 events were acquired. Data were analyzed and processed.

RRE IIB RNA = test: Fluorescence anisotropy: RhdRev binding and AAC competition for RRE IIB RNA; set-up: species or system HIV-1
TAR RNA = test: Fluorescence anisotropy: RhdRev binding and AAC competition for TAR RNA; set-up: species or system HIV-1
cMAGI cells = test: Competition between FITC-labelled AACs and RANTES; assay type: cell-based; conditions: 2.5 mM RANTES
Experimental: Competition between FITC labelled AACs (1 mM) and RANTES (2.5 mM, Pepro Tech Inc., New Jersey, USA) was effected in 2×10^5 cMAGI cells. Following 30 min of incubation, cells were washed with ice-cold wash buffer and analysed by flow cytometry as described above.

HIV-1 isolates [4] = test: Inhibition of HIV-1 infection (cMAGI reporter cells, MT2 syncytium formation); assay type: cell-based; conditions: up to 100 μM
Experimental: Aliquots of cell-free culture supernatants were used as viral inoculum. […] Cytotoxicity determinations were carried out in MT2 and H9 cells by trypan blue exclusion assay.
Viral inhibition was determined by incubating cMAGI HIV-1 reporter cells with 0.2–0.5 multiplicity of infection of HIV-1IIIB for 4 days at 37° C. in the presence or absence of various concentration of AACs, prior to counting the number of HIV-1 infected cells (stained blue). The cytopathic effects of the viral infection of MT2 cells were also analyzed by microscopic assessment of syncytium formation. These latter data were obtained by analysis of duplicate samples by two independent observers.

RRE IIB [5] = conditions: fluorescein-Rev34-50 as fluorescent tracer; read-out: KD of aminoglycoside binding to RRE IIB; cited from earlier work
RRE IIB [6] = test: Fluorescence anisotropy of aminoglycoside binding to RRE IIB, fluorescein-Rev34-50 tracer (literature); set-up: species or system HIV-1

With SDF-1α the EC50 ([1]; NeoR6 resistant HIV-1 isolates, text of b338) was 1 µg/mL, the EC50 ([1]; NeoR6 resistant isolates after 25 passages, mean and standard deviation of three separate experiments, read-out: EC50, NeoR6RES) was 180 ± 70 nM and the “inhibition of PE-12G5 binding to PM1 cells by SDF-1α” value (CXCR4; 62.5 and 125 nM SDF-1α, control) was “inhibited significantly”. The “anti-HIV-1 EC50, fold lower than that of NeoR6” value (HIV-1 isolates [2]) was roughly 70 fold, the EC50 (HIV-1IIIB wild type; HIV-1IIIB wt, mean and standard deviation of three separate experiments, read-out: EC50, Wild-type) was 200 ± 50 nM and the EC50 (HIV-1IIIB wild type; wt HIV-1 isolate, text of b338) was 1 µg/mL.

With `CC(=O)O.N=C(N)NCCCC(N)C(=O)NCC1OC(OC2C(CO)OC(OC3C(O)C(NC(=O)C(N)CCCNC(=N)N)CC(NC(=O)C(N)CCCNC(=N)N)C3OC3OC(CO)C(O)C(O)C3NC(=O)C(N)CCCNC(=N)N)C2O)C(NC(=O)C(N)CCCNC(=N)N)C(O)C1O` (centres unmarked) [ParomR5, pentaargininamido-paromomycin conjugate] the “MFI of FITC-AAC uptake” value (PM1 cells; 62.5 nM SDF-1α) was 83, the “inhibition of cell uptake by SDF-1α” value (PM1 cells; 125 nM SDF-1α, PM1 cells) was “about 50%” and the “MFI of FITC-AAC uptake” value (PM1 cells; 125 nM SDF-1α) was 59. For the same compound, the “MFI of FITC-AAC uptake” value (PM1 cells; 250 nM SDF-1α) was 53, the “MFI of FITC-AAC uptake” value (PM1 cells; without SDF-1α) was 104 and the “cellular uptake of FITC-labeled AAC by PM1 cells” value [3] was “uptaken by PM1 cells”. For the same compound, the “inhibition of NeoR6-FITC uptake, less efficient than NeoR6” value (MT-2 cells; 40 fold excess of non-labeled AAC) was “about 50%”, the “inhibition of NeoR6-FITC uptake, less affinity than NeoR6” value (MT-2 cells; 100 fold excess of non-labeled AAC over 0.5 μM NeoR6-FITC) was “about 50%” and the “reduction of 12G5 mAb binding to the cells” value (CXCR4; 10 μM AAC, PM1 cells, 30 min at 4° C.) was 81%. The “inhibition of mAb 12G5 or SDF-1α binding to CXCR4, % of the NeoR6 activity” value (CXCR4; in comparison to NeoR6) was 90%, the Kd (RRE IIB RNA; competition of AACs with RhdRev (10 nM) for RRE IIB RNA (20 nM) binding, 85 mM NaCl) was 96 nM and 95.9 nM and the IC50 (RRE IIB RNA; competition of AACs with RhdRev for RRE IIB RNA binding) was 149 ± 12.3 nM. For the same compound, the “times weaker than NeoR6, RRE IIB binding” value (RRE IIB RNA; ratio of KD to that of NeoR6) was “about 4”, the Kd (TAR RNA; competition of AACs with RhdRev (10 nM) for TAR RNA (20 nM) binding, 85 mM NaCl) was 15 nM and 15.1 nM and the IC50 (TAR RNA; competition of AACs with RhdRev for TAR RNA binding) was 34.3 ± 5.7 nM. The “competition with RhdRev for TAR RNA binding (in words)” value (TAR RNA; up to 20 μM of AAC) was “efficiently competed” and the “effect of RANTES on uptake of FITC derivative” value (cMAGI cells) was “did not affect uptake”.

For `NC[C@@H]1O[C@H](O[C@H]2[C@@H](O)[C@H](O[C@@H]3[C@@H](O)[C@H](N)C[C@H](N)[C@H]3O[C@H]3O[C@H](CN)[C@@H](O)[C@H](O)[C@H]3N)O[C@@H]2CO)[C@H](N)[C@@H](O)[C@@H]1O` [neomycin, neomycin B], the “inhibition of 12G5 mAb binding to CXCR4 (in words)” value (CXCR4; 20 μM aminoglycoside antibiotic) is given as “did not inhibit”, the “antiviral activity (in words)” value (HIV-1 isolates [4]) is given as “did not reveal antiviral activity” and the Kd (RRE IIB [5]) is given as 1180 nM. The “times weaker than NeoR1 binding to RRE IIB” value (RRE IIB [6]; comparator NeoR1) was 6, the “times weaker than NeoR2 binding to RRE IIB” value (RRE IIB [6]; comparator NeoR2) was 7 and the “times weaker than NeoR6 binding to RRE IIB” value (RRE IIB [6]; comparator NeoR6) was roughly 550.
